Measured values from the supplement of paper PMC10307832.

How the values were obtained:
Assay in all cases: relative viability (nuclei count vs DMSO), 5 days (fraction); higher = more cells survive
[1] = compound: C1CC(C1)(C(=O)O)C(=O)O.[NH2-].[NH2-].[Pt+2] [Carboplatin]
Outline: (§1)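 Viability was defined as treated-well nuclei divided by vehicle-well nuclei, with the median taken over replicate plates. Cells from lung cancer lines sat overnight at 37 °C in 1536-well plates, received five √10-spaced library-drug doses by pinning on vehicle-anchored plates, and grew 5 days without medium change before one-step fixation, permeabilisation and Hoechst staining, 4× imaging and MetaXpress nuclear counts. Only plates with control CV under 25% and at least one doubling were kept.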

[2] = compound: CC[C@H](C)N1C=C(C2=C(C=C(C=C21)C3=CN=C(C=C3)N4CCNCC4)C(=O)NCC5=C(C=C(NC5=O)C)C)C [GSK126]
Outline: as §1

[3] = compound: NS(=O)(=O)OC[C@@H]1C[C@@H](n2ccc3c(N[C@H]4CCc5ccccc54)ncnc32)C[C@@H]1O [MLN4924]
Outline: as §1

[4] = compound: C1CC(C1)(C(=O)O)C(=O)O.[NH2-].[NH2-].[Pt+2] [Carboplatin] + Cc1nc(NC(=O)N2CCC[C@H]2C(N)=O)sc1-c1ccnc(C(C)(C)C(F)(F)F)c1 [Alpelisib] (partner 2 µM)
Outline: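 Lung cancer cell lines in 1536-well plates got either a single drug or a fixed anchor-drug dose together with five library-drug doses (not always all listed) in √10 steps, by pin tool, on the day after seeding. Nuclei were counted after 5 days, and relative viability is the treated-to-vehicle ratio of nuclei counts. Values are medians of duplicate plates.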

Cell Line	relative viability ([1]; 0.08 µM)	relative viability ([1]; 0.253 µM)	relative viability ([1]; 0.8 µM)	relative viability ([1]; 2.53 µM)	relative viability ([1]; 8 µM)	relative viability ([2]; 0.08 µM)	relative viability ([2]; 0.253 µM)	relative viability ([2]; 0.8 µM)	relative viability ([2]; 2.53 µM)	relative viability ([2]; 8 µM)	relative viability ([3]; 0.04 µM)	relative viability ([3]; 0.1265 µM)	relative viability ([3]; 0.4 µM)	relative viability ([3]; 1.265 µM)	relative viability ([3]; 4 µM)	relative viability ([4]; first compound 0.08 µM)	relative viability ([4]; first compound 0.253 µM)	relative viability ([4]; first compound 0.8 µM)	relative viability ([4]; first compound 2.53 µM)	relative viability ([4]; first compound 8 µM)
NCI-H2228	1.27	1.16	0.91	0.941	0.687	1.21	0.992	1.04	1.12	1.07	0.723	1.08	0.435	0.171	0.205	0.813	0.687	0.561	0.593	0.566
HCC-78	1.09	0.982	1.02	0.927	0.905	0.984	1.06	1	0.976	0.904	0.968	0.771	0.849	0.323	0.265	0.291	0.391	0.317	0.285	0.33
CAL-12T	1.02	1.04	1	1.07	0.877	1.09	0.986	0.973	1.07	1.17	0.854	0.82	0.485	0.344	0.198	1.18	1.05	1.2	1.23	1.12
SK-LU-1	1.16	1.07	1.06	0.975	0.802	1.01	1.05	1.02	1.14	1.08	0.99	0.799	0.369	0.191	0.201	0.903	1.07	0.933	0.792	0.392
LU99A	1.15	1.08	1.03	0.901	0.702	1.04	0.985	0.912	1.02	0.904	0.918	0.601	0.405	0.178	0.195	0.623	0.584	0.493	0.522	0.365
RERF-LC-KJ	0.978	1.02	0.939	0.88	0.702	1.12	1.1	1.02	1.01	1.05	0.879	0.738	0.233	0.211	0.228	0.887	0.806	0.81	0.883	0.594
NCI-H2126	1.05	1.03	1.02	0.946	0.948	1.04	1.02	1.06	1.07	1	1.03	1.02	0.785	0.459	0.373	0.777	0.763	0.795	0.758	0.713
LXF-289	1.03	1.05	0.967	0.987	0.973	1.03	1.05	1.02	1.01	1.01	0.887	0.822	0.556	0.208	0.146	1.05	1.12	1.01	0.975	0.995
BEN	1.11	0.969	0.987	0.904	0.893	1.1	0.997	0.914	1.04	0.924	0.729	0.627	0.408	0.197	0.219	1.11	1.04	0.891	0.798	0.909
NCI-H1993	0.988	1.02	0.967	0.878	0.8	0.97	0.982	0.955	1.02	1.03	0.877	0.758	0.596	0.531	0.658	0.663	0.745	0.643	0.62	0.678
SW 1573	1.05	1.02	0.992	0.972	0.702	1.21	1.08	1.02	1.05	1.24	1.16	0.954	0.332	0.0817	0.0856	0.827	0.758	0.767	0.798	0.693
A549	1.02	1.01	0.938	0.935	0.563	1.08	0.946	0.955	1.01	0.987	0.946	0.863	0.658	0.0802	0.0487	0.811	0.901	0.854	0.674	0.234
NCI-H520	1.01	0.915	0.947	0.962	0.822	1.21	0.979	0.932	1.22	1.03	0.706	0.563	0.533	0.24	0.243	0.894	1.06	0.897	0.908	0.737
LCLC-97TM1	1.13	0.978	1.09	1.03	0.837	0.999	0.965	0.91	1.02	1.11	0.929	0.657	0.31	0.073	0.0774	0.262	–	0.25	0.256	0.199
HCC-827	1.09	1.01	1.01	1.01	0.983	1.05	1.06	1.01	1.01	0.993	0.972	0.852	0.704	0.253	0.183	1.07	0.962	0.9	0.944	0.893
NCI-H1975	1	0.944	0.968	0.931	0.9	0.961	0.888	0.93	0.923	0.934	0.96	1.14	1.38	0.843	0.447	0.669	0.655	0.728	0.598	0.666
